Assay results from the NIST ThermoML archive (doi:10.1021/je0604232).

Test: molar heat capacity at constant pressure; xn = mol fraction of the nth substance listed
Settings: 101 kPa, Liquid

NCCCO [3-amino-1-propanol] + O
molar heat capacity at constant pressure [J/K/mol]
Settings | x1 = 0.0999 | x1 = 0.2001 | x1 = 0.3003 | x1 = 0.4015 | x1 = 0.4996 | x1 = 0.6006 | x1 = 0.7003 | x1 = 0.8003 | x1 = 0.8966 | x1 = 1
303.15 K | 94 | 108 | 120 | 131 | 143 | 155 | 168 | 180 | 193 | 204
308.15 K | 96 | 111 | 123 | 135 | 147 | 159 | 171 | 184 | 196 | 207
313.15 K | 97 | 112 | 124 | 136 | 148 | 160 | 172 | 185 | 197 | 208
318.15 K | 98 | 113 | 126 | 138 | 150 | 162 | 173 | 186 | 198 | 208
323.15 K | 99 | 115 | 128 | 140 | 152 | 163 | 175 | 187 | 199 | 209
328.15 K | 101 | 117 | 130 | 142 | 154 | 166 | 177 | 189 | 200 | 210
333.15 K | 103 | 119 | 132 | 145 | 157 | 169 | 179 | 191 | 202 | 211
338.15 K | 106 | 122 | 135 | 148 | 160 | 172 | 182 | 193 | 204 | 213
343.15 K | 110 | 126 | 139 | 151 | 163 | 175 | 185 | 196 | 206 | 214
348.15 K | 114 | 130 | 143 | 155 | 167 | 179 | 188 | 198 | 208 | 216
353.15 K | 119 | 135 | 147 | 160 | 172 | 183 | 192 | 201 | 210 | 217
